In patent US20100267743A1, “3-(PHENOXYPYRROLIDIN-3-YL-METHYL)HETEROARYL, 3-(PHENYLPYRROLIDIN-3-YLMETHOXY)HETEROARYL, AND 3-(HETEROARYLPYRROLIDIN-3-YLMETHOXY)HETEROARYL COMPOUNDS” (priority 2009, published 2010):
Marks after values point to notes of the source that are not given here.

Legend:
[1] = target: SERT (Homo sapiens, UniProt P31645); assay: hSERT radioligand binding assay (3H-citalopram); design: expressed in transfected cells; host or cells: HEK-293; conditions: hSERT membranes (HEK-293), 1.0 nM 3H-citalopram; for Ki: read-out: SERT pKi (converted)
Sequence of SERT (P31645 whole entry): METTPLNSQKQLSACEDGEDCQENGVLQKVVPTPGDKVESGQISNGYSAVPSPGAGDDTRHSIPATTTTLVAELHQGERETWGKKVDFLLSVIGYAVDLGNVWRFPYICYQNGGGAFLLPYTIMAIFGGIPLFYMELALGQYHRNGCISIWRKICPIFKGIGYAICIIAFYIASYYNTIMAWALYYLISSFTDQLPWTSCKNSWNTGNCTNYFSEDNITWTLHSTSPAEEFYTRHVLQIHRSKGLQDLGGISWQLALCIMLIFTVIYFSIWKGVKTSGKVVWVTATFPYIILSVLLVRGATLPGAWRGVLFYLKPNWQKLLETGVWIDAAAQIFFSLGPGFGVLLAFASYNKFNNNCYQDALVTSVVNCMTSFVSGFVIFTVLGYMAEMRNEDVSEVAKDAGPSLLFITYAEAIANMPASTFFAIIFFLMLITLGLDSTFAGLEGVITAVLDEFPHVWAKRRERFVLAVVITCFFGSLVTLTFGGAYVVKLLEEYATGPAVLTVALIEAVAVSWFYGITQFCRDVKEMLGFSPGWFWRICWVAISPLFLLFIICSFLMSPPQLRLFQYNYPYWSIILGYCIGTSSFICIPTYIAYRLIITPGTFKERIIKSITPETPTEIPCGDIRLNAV
Description: (§1) Membrane radioligand binding assays were used to measure inhibition of labeled ligand (^3H-citalopram or ^3H-nisoxetine or ^3H-WIN35428) binding to membranes prepared from cells expressing the respective human recombinant transporter (hSERT or hNET or hDAT) in order to determine the pKi values of test compounds at the transporters.
(§2) Recombinant human embryonic kidney (HEK-293) derived cell lines stably transfected with hSERT or hNET, respectively, were grown in DMEM medium supplemented with 10% dialyzed FBS (for hSERT) or FBS (for hNET), 100 μg/ml penicillin, 100 μg/ml streptomycin, 2 mM L-glutamine and 250 μg/ml of the aminoglycoside antibiotic G418, in a 5% CO2 humidified incubator at 37° C. When cultures reached 80% confluence, the cells were washed thoroughly in PBS (without […] and Mg^2+) and lifted with 5 mM EDTA in PBS. Cells were pelleted by centrifugation, resuspended in lysis buffer (10 mM Tris-HCl, pH7.5 containing 1 mM EDTA), homogenized, pelleted by centrifugation, then resuspended in 50 mM Tris-HCl, pH 7.5 and 10% sucrose at 4° C. Protein concentration of the membrane suspension was determined using a Bio-Rad Bradford Protein Assay kit. Membranes were snap frozen and stored at −80° C. Chinese hamster ovary membranes expressing hDAT (CHO-DAT) were purchased from PerkinElmer and stored at −80° C.
(§3) Binding assays were performed in a 96-well assay plate in a total volume of 200 μl assay buffer (50 mM Tris-HCl, 120 mM NaCl, 5 mM KCl, pH 7.4) with 0.5, 1, and 3 μg membrane protein, for SERT, NET and DAT, respectively.
(§4) Stock solutions (10 mM in DMSO) of test compound were prepared and serial dilutions made using Dilution Buffer (50 mM Tris-HCl, 120 mM NaCl, 5 mM KCl, pH 7.4, 0.1% BSA, 400 μM ascorbic acid).
(§5) Following a 60 minute incubation at 22° C. (or a period sufficient to reach equilibrium), the membranes were harvested by rapid filtration over a 96-well UniFilter GF/B plate, pretreated with 0.3% polyethyleneimine, and washed 6 times with 300 μl wash buffer (50 mM Tris-HCl, 0.9% NaCl, pH 7.5 at 4° C.). Plates were dried overnight at room temperature, ˜45 μl of MicroScint™-20 (Perkin Elmer) added and bound radioactivity quantitated via liquid scintillation spectroscopy. Inhibition curves and saturation isotherms were analyzed using GraphPad Prism Software package (GraphPad Software, Inc., San Diego, Calif.). IC50 values were generated from concentration response curves using the Sigmoidal Dose Response (variable slope) algorithm in Prism GraphPad. Kd and Bmax values for the radioligand were generated from saturation isotherms using the Saturation Binding Global Fit algorithm in Prism GraphPad. pKi (negative decadic logarithm of Ki) values for test compounds were calculated from the best-fit IC50 values, and the Kd value of the radioligand, using the Cheng-Prusoff equation (Cheng & Prusoff (1973) Biochem. Pharmacol. 22(23):3099-3108): Ki=IC50/(1+[L]/Kd), where [L]=concentration radioligand.

[2] = target: NET (Homo sapiens, UniProt P23975); assay: hNET radioligand binding assay (3H-nisoxetine); design: expressed in transfected cells; host or cells: HEK-293; conditions: hNET membranes (HEK-293), 1.0 nM 3H-nisoxetine; for Ki: read-out: NET pKi (converted)
Sequence of NET (P23975 whole entry): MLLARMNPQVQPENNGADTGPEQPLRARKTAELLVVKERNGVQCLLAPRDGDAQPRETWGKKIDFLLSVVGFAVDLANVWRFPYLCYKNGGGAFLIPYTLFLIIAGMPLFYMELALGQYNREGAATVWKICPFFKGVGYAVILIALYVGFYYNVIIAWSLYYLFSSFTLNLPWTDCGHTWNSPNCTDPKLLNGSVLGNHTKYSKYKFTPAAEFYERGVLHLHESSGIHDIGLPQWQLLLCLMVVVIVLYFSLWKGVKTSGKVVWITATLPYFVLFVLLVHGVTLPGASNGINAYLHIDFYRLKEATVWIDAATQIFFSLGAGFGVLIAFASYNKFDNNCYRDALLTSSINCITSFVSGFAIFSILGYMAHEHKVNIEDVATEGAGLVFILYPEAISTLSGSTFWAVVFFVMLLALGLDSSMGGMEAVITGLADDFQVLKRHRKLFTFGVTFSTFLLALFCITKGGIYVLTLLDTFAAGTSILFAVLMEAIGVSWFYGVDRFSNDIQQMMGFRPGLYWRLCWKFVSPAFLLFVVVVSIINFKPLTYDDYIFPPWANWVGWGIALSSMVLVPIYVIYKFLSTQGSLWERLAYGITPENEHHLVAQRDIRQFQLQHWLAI
Description: as §1, §2, §3, §4, §5

| Compound | SERT pKi [1] | NET pKi [2] | Ki [1] [nM] | Ki [2] [nM] |
| --- | --- | --- | --- | --- |
| Clc1ccc(O[C@H](c2ccccc2)[C@@H]2CCNC2)cn1.O=C(O)C(F)(F)F [15-23] | ≧7.0 | ≧5.0 | – | – |
| Cc1cccnc1OC(c1ccccc1)C1CCNC1 (stereo not shown) [14-37] | ≧5.0 | ≧5.0 | – | – |
| Clc1ccc(O[C@H](c2ccccc2)[C@@H]2CCNC2)nc1.O=C(O)C(F)(F)F [14-27] | ≧7.0 | ≧7.0 | – | – |
| Cc1cc(Cl)c(O[C@@H](c2ncco2)[C@H]2CCNC2)cc1F.O=C(O)C(F)(F)F [6-24] | ≧7.0 | ≧7.0 | – | – |
| COc1cc(F)c(O[C@H](c2nccs2)C2CCNC2)c(F)c1 (stereo partly shown) [Example 5-29] | ≧7.0 | ≧5.0 | – | – |
| Fc1ccc(F)c(O[C@H](c2cncnc2)[C@H]2CCNC2)c1Cl [12-2] | – | – | ≤ 100 | ≤ 10000 |
| Fc1cc(F)c(O[C@@H](c2ncco2)[C@H]2CCNC2)c(F)c1 [6-2] | – | – | ≤ 10000 | ≤ 10000 |
| Fc1ccc(F)c(O[C@@H](c2ccco2)[C@H]2CCNC2)c1Cl [Example 8-1, (S)-3-[(R)-(2-Chloro-3,6-difluorophenoxy)furan-2-yl-methyl]pyrrolidine] | – | – | ≤ 10000 | ≤ 10000 |
| COc1ccccc1O[C@@H](c1ncco1)[C@H]1CCNC1.O=C(O)C(F)(F)F [6-52] | ≧5.0 | ≧7.0 | – | – |
| Fc1ccc(O[C@@H](c2ccccc2)[C@H]2CCNC2)nc1F.O=C(O)C(F)(F)F [14-5] | ≧5.0 | ≧7.0 | – | – |
| Fc1cc(Cl)ccc1O[C@H](c1nccs1)[C@H]1CCNC1 [Example 5-33] | ≧7.0 | ≧7.0 | – | – |
| FC(F)(F)c1ccc(O[C@@H](c2ccccc2)[C@H]2CCNC2)nc1.O=C(O)C(F)(F)F [14-23] | ≧7.0 | ≧5.0 | – | – |
| Clc1cc(Cl)cc(O[C@@H](c2cncnc2)[C@H]2CCNC2)c1.O=C(O)C(F)(F)F [12-5] | ≧7.0 | ≧5.0 | – | – |
| Cc1ccc(O[C@@H](c2ccccc2)[C@H]2CCNC2)nc1.O=C(O)C(F)(F)F [14-30] | ≧5.0 | ≧7.0 | – | – |
| CCc1cc(F)cc(F)c1O[C@H](c1cncc(F)c1)[C@@H]1CCNC1 [Example 2-57, 3-[(R)-(2-Ethy1-4,6-difluorophenoxy)-(S)-pyrrolidin-3-yl-methyl]-5-fluoropyridine] | ≧7.0 | ≧7.0 | – | – |
| Clc1cc(Cl)cc(OC(c2ccoc2)C2CCNC2)c1 [Example 9-1, (S)-3-[(R)-(3,5-Dichlorophenoxy)-furan-3-yl-methyl]pyrrolidione] | – | – | ≤ 100 | ≤ 100 |
| O=C(O)C(F)(F)F.c1ccc2c(O[C@@H](c3ncco3)[C@H]3CCNC3)cccc2c1 [19-3] | ≧7.0 | ≧7.0 | – | – |
| Fc1ccc(O[C@H](c2ccccc2)[C@@H]2CCNC2)cn1.O=C(O)C(F)(F)F [15-26] | ≧7.0 | ≧5.0 | – | – |
| Cc1cc(Cl)ccc1OC(c1nccs1)[C@H]1CCNC1 (single isomer, unassigned) [Example 4] | – | – | ≤ 100 | ≤ 100 |
| O=C(O)C(F)(F)F.c1ccc([C@H](Oc2ccccn2)[C@H]2CCNC2)cc1 [14-41] | ≧7.0 | ≧7.0 | – | – |
| FC(F)(F)Oc1ccccc1O[C@@H](c1ncco1)[C@H]1CCNC1 [6-37] | – | – | ≤ 10000 | ≤ 100 |
| Cc1c(Cl)cccc1O[C@@H](c1ncco1)[C@H]1CCNC1.O=C(O)C(F)(F)F [6-50] | ≧7.0 | ≧7.0 | – | – |

| Compound | SERT pKi [1] | NET pKi [2] | Ki [1] [nM] | Ki [2] [nM] |
| --- | --- | --- | --- | --- |
| Fc1cc(Cl)c(OC(c2nccs2)C2CCNC2)c(Cl)c1 [Example 5-11, 2-[((S)-(2,6-Dichloro-4-fluorophenoxy)-((S)-pyrrolidin-3-yl-methyl]thiazole] | – | ≧5.0 | ≤ 100 | – |
| Cc1c(O[C@@H](c2ccccc2)[C@H]2CCNC2)ccnc1Cl.O=C(O)C(F)(F)F [16-1] | ≧7.0 | ≧5.0 | – | – |
| Fc1cc(Cl)c(O[C@H](c2cncc(Cl)c2)[C@@H]2CCNC2)c(Cl)c1 [Example 2-26, 3-Chloro-5-[(R)-(2,6-dichloro-4-fluorophenoxy)-(S)-pyrrolidin-3-yl-methy1]-pyridine] | ≧7.0 | ≧5.0 | – | – |
| Cc1ccc(F)c(OC(c2nccs2)C2CCNC2)c1Cl [Example 5-18, 2-[(R)-(2-Chloro-6-fluoro-3-methylphenoxy)-((S)-pyrrolidin-3-yl-methyl]thiazole] | – | – | ≤ 100 | ≤ 100 |
| c1ccc(C(Oc2ccccn2)C2CCNC2)cc1 (stereo not shown) [14-40] | – | – | ≤ 10000 | ≤ 100 |
| Cc1ccc(F)c(O[C@H](c2nccs2)[C@H]2CCNC2)c1Cl [Example 5-23] | ≧7.0 | ≧7.0 | – | – |
| Clc1ncccc1O[C@@H](c1ccccc1)[C@H]1CCNC1.O=C(O)C(F)(F)F [15-6] | ≧7.0 | ≧7.0 | – | – |
| Fc1cc(F)c(O[C@@H](c2cccnc2)[C@H]2CCNC2)c(F)c1 [Example 2-68, 3-[(R)-(S)-Pyrrolidin-3-yl-(2,4,6-trifluorophenoxy)methyl]pyridine] | – | – | ≤ 10000 | ≤ 10000 |
| Cc1cc(Cl)c(O[C@H](c2nccs2)[C@H]2CCNC2)c(Cl)c1 [Example 5-14] | ≧7.0 | ≧5.0 | – | – |
| Fc1cncc([C@@H](Oc2cc(Cl)cc(Cl)c2)[C@H]2CCNC2)c1 [Example 2-66, 3-[(S)-(3,5-Dichlorophenoxy)-(S)-pyrrolidin-3-yl-methyl]-5-fluoropyridine] | – | – | ≤ 100 | ≤ 100 |
| Fc1c(Cl)ccc(O[C@@H](c2ncco2)[C@H]2CCNC2)c1Cl.O=C(O)C(F)(F)F [6-4] | ≧7.0 | ≧7.0 | – | – |
| CC(=O)c1c(O[C@@H](c2ncco2)[C@H]2CCNC2)ccc(Cl)c1Cl.O=C(O)C(F)(F)F [6-27] | ≧7.0 | ~5.0* | – | – |
| Clc1ccc(O[C@@H](c2ccccc2)[C@H]2CCNC2)c(Cl)n1.O=C(O)C(F)(F)F [15-3] | ≧7.0 | ≧7.0 | – | – |
| Fc1cnc(O[C@@H](c2ccccc2)[C@H]2CCNC2)c(F)c1C(F)(F)F.O=C(O)C(F)(F)F [14-18] | ≧7.0 | ≧7.0 | – | – |
| COc1ncccc1O[C@@H](c1ccccc1)C1CCNC1 (stereo partly shown) [15-16] | – | – | ≤ 100 | ≤ 100 |
| Cc1cc(Cl)cc(C)c1OC(c1cncc(F)c1)C1CCNC1 [Example 2-46, 3-[(R)-(4-Chloro-2,6-dimethylphenoxy)-(S)-pyrrolidin-3-yl-methy1]-5-fluoropyridine] | – | – | ≤ 100 | ≤ 10000 |
| Clc1cc(Cl)cc(O[C@H](c2ccco2)[C@H]2CCNC2)c1 [Example 8-4, (S)-3-[(S)-(3,5-Dichlorophenoxy)furan-2-yl-methyl]pyrrolidine] | – | – | ≤ 100 | ≤ 100 |
| CCc1cc(F)ccc1O[C@H](c1cncc(F)c1)[C@@H]1CCNC1 [Example 2-58, 3-[(R)-(2-Ethy1-4-fluorophenoxy)-(S)-pyrrolidin-3-yl-methyl]-5-fluoropyridine] | ≧7.0 | ≧7.0 | – | – |
| COc1ccc(O[C@@H](c2ccccc2)C2CCNC2)cn1 (stereo partly shown) [15-29] | – | – | ≤ 100 | ≤ 10000 |
| Fc1cc(F)c(O[C@H](c2cccnc2)[C@H]2CCNC2)c(F)c1 [Example 2-69, 3-[(S)-(S)-Pyrrolidin-3-yl-(2,4,6-trifluorophenoxy)methyl]pyridine] | – | – | ≤ 100 | ≤ 100 |
| Cc1cc(Cl)c(OC(c2nccs2)C2CCNC2)c(Cl)c1 [Example 5-13, 2-[(R)-(2,6-Dichloro-4-methylphenoxy)-((S)-pyrrolidin-3-yl-methyl]thiazole] | – | – | ≤ 10000 | ≤ 10000 |
| Fc1cc(F)c(Cl)c(O[C@@H](c2ncco2)[C@H]2CCNC2)c1Cl.O=C(O)C(F)(F)F [6-9] | ≧5.0 | ≧7.0 | – | – |
